In US20220298146A1, “HETEROCYCLIC DERIVATIVE AND USE THEREOF” (Transthera Sciences (Nanjing), Inc., priority 2019, published 2022) one finds IC50 data, which are given here for 10 compounds.

One assay has as its target T1, LCK (h) (Homo sapiens, UniProt P06239).
T1 construct: purchased
As to the kind of experiment: Enzymatic activity assay, LCK (h) kinase, [γ-33P]-ATP. It counts as biochemical. Conditions: 10 μM [γ-33P]-ATP, 40 min, room temperature; read-out: Inhibitory Activity on LCK (h) kinase, IC50. The procedure: (§1) Test samples: the compounds of the present invention, having structures and preparation methods shown above.
Preparation of Compound Stock Solutions:
(§2) Compounds were each dissolved in 100% DMSO to prepare stock solutions with a maximum concentration of 500 μM.
Preparation of Compound Working Solutions:
(§3) The compound stock solutions were diluted to final concentrations of 500 μM, 150 μM, 50 μM, 15 μM, 5 μM, 1.5 μM, 0.5 μM, 0.15 μM and 0.05 μM to prepare compound working solutions (50×).
Preparation of Different Enzymatic Reaction Solutions:
LCK (h) enzyme was dissolved in a mixture of 50 mM Tris (pH 7.5), 0.1 mM EGTA, 0.1 mM Na3VO4 and 250 μM KVEKIGEGTYGVVYK to prepare an enzyme solution with a final concentration of 45 nM. An Mg/ATP mixture of 10 mM magnesium acetate and 10 μM [γ-^33P]-ATP was used to activate the enzymatic reaction.
(§4) The compound working solutions were added to a 384-well plate, with final concentrations of 10000 nM, 3000 nM, 1000 nM, 300 nM, 100 nM, 30 nM, 10 nM, 3 nM and 1 nM, respectively, and then different enzymatic reaction solutions prepared according to the above conditions were added. The reaction solutions were incubated at room temperature for 40 min, and then 0.5% phosphoric acid solutions were added to terminate the reaction. 10 μL of the reaction solution was added dropwise to P30 filter paper which was washed 4 times with a 0.425% phosphoric acid solution and once with methanol and then placed in a scintillation counter for detection. Gray analysis was performed on the results with Image J software, and IC50 values were calculated with GraphPad 5.0 software.

A further assay deals with T2, Tyro-3 (h) (Homo sapiens, UniProt Q06418).
T2 construct: purchased
T2 sequence (Q06418 41-890): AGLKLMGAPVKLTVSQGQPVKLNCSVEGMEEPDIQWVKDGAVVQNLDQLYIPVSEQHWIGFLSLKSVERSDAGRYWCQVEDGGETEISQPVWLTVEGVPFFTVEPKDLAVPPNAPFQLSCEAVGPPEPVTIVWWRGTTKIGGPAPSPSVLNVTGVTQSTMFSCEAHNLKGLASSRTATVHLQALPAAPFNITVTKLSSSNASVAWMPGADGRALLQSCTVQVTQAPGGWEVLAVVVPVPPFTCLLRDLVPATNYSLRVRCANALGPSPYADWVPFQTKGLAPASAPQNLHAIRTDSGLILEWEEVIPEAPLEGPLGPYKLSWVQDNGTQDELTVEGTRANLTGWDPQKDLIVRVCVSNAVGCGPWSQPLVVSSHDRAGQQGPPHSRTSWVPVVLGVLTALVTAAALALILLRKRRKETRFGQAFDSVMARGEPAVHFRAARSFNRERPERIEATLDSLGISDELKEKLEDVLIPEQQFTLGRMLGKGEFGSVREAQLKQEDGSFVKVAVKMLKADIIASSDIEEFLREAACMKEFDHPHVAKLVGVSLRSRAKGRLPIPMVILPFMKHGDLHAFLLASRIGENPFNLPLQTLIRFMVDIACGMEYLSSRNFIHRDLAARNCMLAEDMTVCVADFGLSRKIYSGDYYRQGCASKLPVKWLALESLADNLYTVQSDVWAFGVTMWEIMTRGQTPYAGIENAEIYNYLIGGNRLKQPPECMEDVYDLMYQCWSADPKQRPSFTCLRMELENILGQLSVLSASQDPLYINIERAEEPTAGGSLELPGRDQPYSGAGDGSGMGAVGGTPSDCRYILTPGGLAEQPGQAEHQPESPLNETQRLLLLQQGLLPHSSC
As to the kind of experiment: Enzymatic activity assay, Tyro-3 (h) kinase, [γ-33P]-ATP. It counts as biochemical. Conditions: 10 μM [γ-33P]-ATP, 40 min, room temperature; read-out: Inhibitory Activity on Tyro-3 (h), IC50. The procedure: as §1
(1) Preparation of Compound Stock Solutions
as §2
(2) Preparation of Compound Working Solutions
as §3
(3) Preparation of different enzymatic reaction solutions
Tyro3 (h) enzyme was dissolved in a mixture of 8 mM MOPS (pH 7.0), 0.2 mM EDTA, 1 mM MnCl2 and 250 μM KVEKIGEGTYGVVYK to prepare an enzyme solution with a final concentration of 38 nM. An Mg/ATP mixture of 10 mM magnesium acetate and 10 μM [γ-^33P]-ATP was used to activate the enzymatic reaction.
as §4

T1 sequence (P06239 whole entry): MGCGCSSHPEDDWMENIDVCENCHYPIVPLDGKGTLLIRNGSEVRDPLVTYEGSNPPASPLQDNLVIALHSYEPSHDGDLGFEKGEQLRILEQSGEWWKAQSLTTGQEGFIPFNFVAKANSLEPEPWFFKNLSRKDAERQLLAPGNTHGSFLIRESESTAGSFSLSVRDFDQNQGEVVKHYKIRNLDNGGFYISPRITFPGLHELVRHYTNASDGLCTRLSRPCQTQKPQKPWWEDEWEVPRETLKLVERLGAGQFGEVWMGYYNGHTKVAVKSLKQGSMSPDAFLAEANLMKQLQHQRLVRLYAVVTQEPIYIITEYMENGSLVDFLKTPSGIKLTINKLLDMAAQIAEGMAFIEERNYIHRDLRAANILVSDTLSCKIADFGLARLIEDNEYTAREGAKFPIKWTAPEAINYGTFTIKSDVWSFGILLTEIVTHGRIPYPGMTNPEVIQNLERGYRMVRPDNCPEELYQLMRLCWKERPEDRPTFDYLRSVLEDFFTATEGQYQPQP

For orientation: IC50 means the concentration at which inhibition is half-maximal. As for `CC(C)n1cc(-c2ccc(F)cc2)c(=O)c(C(=O)Nc2ccc(Oc3ccnc(N)c3Cl)cn2)n1` [Compound 11, N-(5-((2-amino-3-chloropyridin-4-yl)oxy)pyridin-2-yl)-5-(4-fluorophenyl)-1-isopropyl-4-oxo-1,4-dihydropyridazine-3-carboxamide], the IC50 on LCK (h) turned out to be 20 nM; on Tyro-3 (h), 54 nM.
For `CC(C)n1cc(-c2ccc(F)cc2)c(=O)c(C(=O)Nc2ncc(Oc3ccnc(N)c3Cl)cn2)n1` [Compound 12, N-(5-((2-amino-3-chloropyridin-4-yl)oxy)pyrimidin-2-yl)-5-(4-fluorophenyl)-1-isopropyl-4-oxo-1,4-dihydropyridazine-3-carboxamide], in that order: 53 nM and 23 nM.
The like results for `CC(C)n1cc(-c2ccc(F)cc2)c(=O)c(C(=O)Nc2ccc(Oc3ccnc(N)c3Cl)nc2)n1` [Compound 13, N-(6-((2-amino-3-chloropyridin-4-yl)oxy)pyridin-3-yl)-5-(4-fluorophenyl)-1-isopropyl-4-oxo-1,4-dihydropyridazine-3-carboxamide] were, in that order, 132 nM and 39 nM.
For `Nc1nccc(Oc2ccc(NC(=O)c3nn(C4CC4)cc(-c4ccc(F)cc4)c3=O)nc2)c1Cl` [Compound 17, N-(5-((2-amino-3-chloropyridin-4-yl)oxy)pyridin-2-yl)-1-cyclopropyl-5-(4-fluorophenyl)-4-oxo-1,4-dihydropyridazine-3-carboxamide], in that order: 24 nM and 31 nM.
For `Nc1nccc(Oc2cnc(NC(=O)c3nn(C4CC4)cc(-c4ccc(F)cc4)c3=O)nc2)c1Cl` [Compound 18, N-(5-((2-amino-3-chloropyridin-4-yl)oxy)pyrimidin-2-yl)-5-(4-fluorophenyl)-1-cyclopropyl-4-oxo-1,4-dihydropyridazine-3-carboxamide], on Tyro-3 (h), the IC50 amounted to 49 nM.
As to `Nc1nccc(Oc2ccc(NC(=O)c3nn(C4CC4)cc(-c4ccc(F)cc4)c3=O)cn2)c1Cl` [Compound 19, N-(6-((2-amino-3-chloropyridin-4-yl)oxy)pyridin-3-yl)-1-cyclopropyl-5-(4-fluorophenyl)-4-oxo-1,4-dihydropyridazine-3-carboxamide], the figures for the half-maximal inhibitory concentration (IC50) on LCK (h) and on Tyro-3 (h) were 104 nM and 73 nM, respectively.
In the case of `Cn1cc(-c2ccc(F)cc2)c(=O)c(C(=O)Nc2ccc(Oc3ccnc(N)c3Cl)cn2)n1` [Compound 33, N-(5-((2-amino-3-chloropyridin-4-yl)oxy)pyridin-2-yl)-5-(4-fluorophenyl)-1-methyl-4-oxo-1,4-dihydropyridazine-3-carboxamide], the values for the IC50 on LCK (h) and on Tyro-3 (h) were 26 nM and 23 nM, respectively.
For `C=CCn1cc(-c2ccc(F)cc2)c(=O)c(C(=O)Nc2ccc(Oc3ccnc(N)c3Cl)cn2)n1` [Compound 35, 1-allyl-N-(5-((2-amino-3-chloropyridin-4-yl)oxy)pyridin-2-yl)-5-(4-fluorophenyl)-4-oxo-1,4-dihydropyridazine-3-carboxamide], the IC50 was found to be 20 nM on LCK (h) and 24 nM at Tyro-3 (h).
On to `C=CCn1cc(-c2ccc(F)cc2)c(=O)c(C(=O)Nc2ncc(Oc3ccnc(N)c3Cl)cn2)n1` [Compound 37], for which the IC50 on Tyro-3 (h) amounted to 22 nM.
Turning to `C=CCn1cc(-c2ccc(F)cc2)c(=O)c(C(=O)Nc2ccc(Oc3ccnc(N)c3Cl)nc2)n1` [Compound 39, 1-allyl-N-(6-((2-amino-3-chloropyridin-4-yl)oxy)pyridin-3-yl)-5-(4-fluorophenyl)-4-oxo-1,4-dihydropyridazine-3-carboxamide], the IC50 on LCK (h) is 95 nM; at Tyro-3 (h), 28 nM.
